Measured values taken from patent US5614519A, “(1-(2,3 or 4-N-morpholinoalkyl)-imidazol-4-yl)-benizimidazol-1-yl-methyl]-biphenyls useful as angiotensin-II antagonists” (Karl Thomae GmbH, priority 1991, dated 1997).

Test system: conscious renally hypertensive rats
Test: Effect after oral administration in conscious renally hypertensive rats
Assay type: in vivo, rat
Conditions: 10 mg/kg
Method: In addition, compounds D, E, F, G, H, M and O were tested on conscious renally hypertensive rats for their effect after oral administration using methods known from the literature.

SMILES | hypotensive effect
CCCc1nc2c(C)cc(-c3nc4ccccc4n3C)cc2n1Cc1ccc(-c2ccccc2C(=O)O)cc1 [Substance D, 4'-[[2-n-propyl-4-methyl-6-(1-methylbenzimidazol-2-yl)-benzimidazol-1-yl]-methyl]-biphenyl-2-carboxylic acid] | hypotensive effect
CCCc1nc2c(C)cc(-c3nc4ccccc4n3C)cc2n1Cc1ccc(-c2ccccc2-c2nnn[nH]2)cc1 [Substance E, 4'-[[2-n-propyl-4-methyl-6-(1-methylbenzimidazol-2-yl)-benzimidazol-1-yl]-methyl]-2-(1H-tetrazol-5-yl)-biphenyl] | hypotensive effect
CCCc1nc2c(C)cc(N3Cc4ccccc4C3=O)cc2n1Cc1ccc(-c2ccccc2-c2nnn[nH]2)cc1 [Substance F, 4'-[[2-n-propyl-4-methyl-6-(1-oxo-isoindolin-2-yl)-benzimidazol-1-yl]-methyl]-2-(1H-tetrazol-5-yl)-biphenyl] | hypotensive effect
CCCc1nc2c(C)cc(N3CCCCS3(=O)=O)cc2n1Cc1ccc(-c2ccccc2-c2nn[nH]n2)cc1 [Substance G, 4'-[[2-n-propyl-4-methyl-6-(butanesultam-1-yl)-benzimidazol-1-yl]-methyl]-2-(1H-tetrazol-5-yl)-biphenyl] | hypotensive effect
CCCCc1nc2c(C)cc(N3C(=O)C(C)=C(C)C3=O)cc2n1Cc1ccc(-c2ccccc2C(=O)O)cc1 [Substance H, 4'-[[2-n-butyl-6-(2,3-dimethylmaleic acid imino)-4-methyl-benzimidazol-1-yl]-methyl]-biphenyl-2-carboxylic acid semihydrate] | hypotensive effect
Cc1cc(-c2nc3ccccc3n2C)cc2c1nc(C1CC1)n2Cc1ccc(-c2ccccc2C(=O)O)cc1 [Substance M, 4'-[(2-cyclopropyl-4-methyl-6-(1-methylbenzimidazol-2-yl)-benzimidazol-1-yl)-methyl]-biphenyl-2-carboxylic acid] | hypotensive effect
CCCc1nc2c(C)cc(-c3cn4cccnc4n3)cc2n1Cc1ccc(-c2ccccc2-c2nnn[nH]2)cc1 [Substance O, 4'-[(2-n-propyl-4-methyl-6-(imidazo[1,2-a]pyrimidin-2-yl)-benzimidazol-1-yl)-methyl]-2-(1H-tetrazol-5-yl)-biphenyl] | hypotensive effect
